Laboratory results from ChEMBL document CHEMBL6120963, “Discovery of Novel PROTAC SIRT6 Degraders with Potent Efficacy against Hepatocellular Carcinoma” (J Med Chem, 2024).
The source made the active and inactive calls. No cut-off for these calls is given here.

Experiments:
[1] = target: T1, Protein cereblon/NAD-dependent protein deacylase sirtuin-6 (Homo sapiens, UniProt Q8N6T7+Q96SW2); assay: PROTAC activity at CRBN/SIRT6 in human SK-HEP1 cells assessed as induction of SIRT6 degradation at 0.02 to 5 uM incubated for 36 hrs by Western blot analysis; type: cell-based; conditions: dose 0.02-5 µM
Target sequence in this assay (Q8N6T7 2-355 limits assumed): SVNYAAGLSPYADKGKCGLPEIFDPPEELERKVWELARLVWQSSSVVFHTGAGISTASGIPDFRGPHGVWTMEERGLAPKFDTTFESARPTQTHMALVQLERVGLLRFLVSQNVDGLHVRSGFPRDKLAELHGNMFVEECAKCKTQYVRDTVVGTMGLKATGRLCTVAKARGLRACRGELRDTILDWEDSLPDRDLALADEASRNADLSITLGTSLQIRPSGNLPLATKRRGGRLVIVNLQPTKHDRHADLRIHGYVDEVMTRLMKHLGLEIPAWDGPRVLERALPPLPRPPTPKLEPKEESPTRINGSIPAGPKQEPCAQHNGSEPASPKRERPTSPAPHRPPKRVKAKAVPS
Target sequence in this assay (Q96SW2 whole entry partner): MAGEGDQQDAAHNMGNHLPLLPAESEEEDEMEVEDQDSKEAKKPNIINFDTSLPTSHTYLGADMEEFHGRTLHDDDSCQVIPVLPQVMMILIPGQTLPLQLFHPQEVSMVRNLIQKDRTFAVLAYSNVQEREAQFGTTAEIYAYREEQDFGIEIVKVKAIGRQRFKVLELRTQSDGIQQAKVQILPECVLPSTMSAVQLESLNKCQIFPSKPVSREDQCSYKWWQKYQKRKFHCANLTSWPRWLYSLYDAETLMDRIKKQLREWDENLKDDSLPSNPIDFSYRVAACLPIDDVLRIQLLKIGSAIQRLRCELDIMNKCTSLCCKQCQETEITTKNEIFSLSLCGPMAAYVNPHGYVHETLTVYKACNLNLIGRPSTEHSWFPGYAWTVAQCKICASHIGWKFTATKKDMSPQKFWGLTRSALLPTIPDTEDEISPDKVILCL

[2] = target: T1, Protein cereblon/NAD-dependent protein deacylase sirtuin-6; assay: PROTAC activity at CRBN/SIRT6 in human SK-HEP1 cells assessed as induction of SIRT6 degradation at 2 to 3 uM incubated for 36 hrs by Western blot analysis; type: cell-based; conditions: dose 2-3 µM
Target sequence in this assay (Q8N6T7 2-355 limits assumed): as the sequence (Q8N6T7 2-355 limits assumed) above
Target sequence in this assay (Q96SW2 whole entry partner): as the sequence (Q96SW2 whole entry partner) above

[3] = target: T1, Protein cereblon/NAD-dependent protein deacylase sirtuin-6; assay: PROTAC activity at CRBN/SIRT6 in human Huh-7 cells assessed as induction of SIRT6 degradation upto 10 uM incubated for 36 hrs by Western blot analysis relative to control; type: cell-based
Target sequence in this assay (Q8N6T7 2-355 limits assumed): as the sequence (Q8N6T7 2-355 limits assumed) above
Target sequence in this assay (Q96SW2 whole entry partner): as the sequence (Q96SW2 whole entry partner) above

SK-HEP1 [4] = assay: Cytotoxicity against human SK-HEP1 cells incubated for 72 hrs by CCK8 assay; type: functional, cell-based; conditions: SK-HEP1, 72 h
[5] = target: T1, Protein cereblon/NAD-dependent protein deacylase sirtuin-6; assay: PROTAC activity at CRBN/SIRT6 in human SK-HEP1 cells assessed as induction of SIRT6 degradation incubated for 36 hrs by Western blot analysis; type: cell-based; conditions: for Activity: dose 0.02-5 µM
[6] = target: T1, Protein cereblon/NAD-dependent protein deacylase sirtuin-6; assay: PROTAC activity at CRBN/SIRT6 in human SK-HEP1 cells assessed as induction of SIRT6 degradation at 2 uM incubated for 36 hrs by In-Cell ELISA relative to control; type: cell-based
Target sequence in this assay (Q8N6T7 2-355 limits assumed): as the sequence (Q8N6T7 2-355 limits assumed) above
Target sequence in this assay (Q96SW2 whole entry partner): as the sequence (Q96SW2 whole entry partner) above

[7] = target: T1, Protein cereblon/NAD-dependent protein deacylase sirtuin-6; assay: PROTAC activity at CRBN/SIRT6 in human SK-HEP1 cells assessed as induction of SIRT6 degradation at 200 nM incubated for 36 hrs by In-Cell ELISA relative to control; type: cell-based
Target sequence in this assay (Q8N6T7 2-355 limits assumed): as the sequence (Q8N6T7 2-355 limits assumed) above
Target sequence in this assay (Q96SW2 whole entry partner): as the sequence (Q96SW2 whole entry partner) above

[8] = target: T1, Protein cereblon/NAD-dependent protein deacylase sirtuin-6; assay: PROTAC activity at CRBN/SIRT6 in human Huh-7 cells assessed as hook effect at 5 uM incubated for 36 hrs by Western blot analysis; type: cell-based
Target sequence in this assay (Q8N6T7 2-355 limits assumed): as the sequence (Q8N6T7 2-355 limits assumed) above
Target sequence in this assay (Q96SW2 whole entry partner): as the sequence (Q96SW2 whole entry partner) above

[9] = target: T1, Protein cereblon/NAD-dependent protein deacylase sirtuin-6; assay: PROTAC activity at CRBN/SIRT6 in human SK-HEP1 cells assessed as induction of SIRT6 degradation upto 10 uM incubated for 36 hrs by Western blot analysis relative to control; type: cell-based
[10] = target: T1, Protein cereblon/NAD-dependent protein deacylase sirtuin-6; assay: PROTAC activity at CRBN/SIRT6 in human Huh-7 cells assessed as induction of SIRT6 degradation incubated for 36 hrs by Western blot analysis; type: cell-based
[11] = target: T1, Protein cereblon/NAD-dependent protein deacylase sirtuin-6; assay: PROTAC activity at CRBN/SIRT6 in human SK-HEP1 cells assessed as hook effect upto 5 uM incubated for 36 hrs by Western blot analysis; type: cell-based
[12] = target: T1, Protein cereblon/NAD-dependent protein deacylase sirtuin-6; assay: PROTAC activity at CRBN/SIRT6 in human SK-HEP1 cells assessed as efficiency of SIRT6 degradation at 2 uM incubated for 36 hrs by Western blot analysis relative to control; type: cell-based
[13] = target: T1, Protein cereblon/NAD-dependent protein deacylase sirtuin-6; assay: PROTAC activity at CRBN/SIRT6 in human SK-HEP1 cells assessed as induction of SIRT6 degradation at 5 uM incubated for 36 hrs by In-Cell ELISA relative to control; type: cell-based
[14] = target: T1, Protein cereblon/NAD-dependent protein deacylase sirtuin-6; assay: PROTAC activity at CRBN/SIRT6 in human SK-HEP1 cells assessed as induction of SIRT6 degradation at 0.5 uM incubated for 36 hrs by In-Cell ELISA relative to control; type: cell-based
SK-HEP1 [15] = assay: Induction of SIRT6 degradation in human SK-HEP1 cells at 5 uM incubated for 36 hrs by In-Cell ELISA relative to control; type: cell-based
SK-HEP1 [16] = assay: Induction of SIRT6 degradation in human SK-HEP1 cells at 0.5 uM incubated for 36 hrs by In-Cell ELISA relative to control; type: cell-based

Structure (SMILES)	Activity [2]	Activity [6] [%]	Activity [7] [%]	further results
Nc1cc(N2CCN(CCCC3CCN(c4cc5c(cc4F)C(=O)N(C4CCC(=O)NC4=O)C5=O)CC3)CC2)ccc1[N+](=O)[O-] (configuration not stated)	Active	94.6	90.3	Activity [1]: Active; Emax [3]: 81.5%; IC50 (SK-HEP1 [4]): 1640 nM; DC50 [5]: 50.4 nM; Activity [8]: Active; Emax [9]: 97.7%; DC50 [10]: 263 nM; Activity ([10]; dose 0.008-5 µM): Dose-dependent-effect; But Reduced Degradation Efficiency Observed
Nc1cc(N2CCN(CC3CN(c4ccc5c(c4)C(=O)N(C4CCC(=O)NC4=O)C5=O)C3)CC2)ccc1[N+](=O)[O-] (configuration not stated)		11	50.6	
Nc1cc(N2CCN(CC3CCCN(c4ccc5c(c4)C(=O)N(C4CCC(=O)NC4=O)C5=O)C3)CC2)ccc1[N+](=O)[O-] (configuration not stated)	Active	87.1	< 10	
Nc1cc(N2CCN(CCCC3CCN(c4ccc5c(c4)C(=O)N(C4CCC(=O)NC4=O)C5=O)CC3)CC2)ccc1[N+](=O)[O-] (configuration not stated)	Active	98.9	84.9	
Nc1cc(N2CCN(CC3CN(c4cc5c(cc4F)C(=O)N(C4CCC(=O)NC4=O)C5=O)C3)CC2)ccc1[N+](=O)[O-] (configuration not stated)		20.6	< 10	
Nc1cc(N2CCN(CC3CCN(c4ccc5c(c4)C(=O)N(C4CCC(=O)NC4=O)C5=O)C3)CC2)ccc1[N+](=O)[O-] (configuration not stated)	Active	98.2	11.9	Activity [11]: inactive; Emax [3]: 78.5%; IC50 (SK-HEP1 [4]): 2190 nM; DC50 [5]: 91.5 nM; Activity [5]: Dose-dependent-effect; Activity [12]: > 95%; Emax [9]: 96.2%; DC50 [10]: 360 nM
Nc1cc(N2CCN(CCNCCCC3CCN(c4ccc5c(c4)C(=O)N(C4CCC(=O)NC4=O)C5=O)CC3)CC2)ccc1[N+](=O)[O-] (configuration not stated)	Active	82.4	53.2	
Nc1cc(N2CCN(CCNC(=O)CNc3cccc4c3C(=O)N(C3CCC(=O)NC3=O)C4=O)CC2)ccc1[N+](=O)[O-] (configuration not stated)	Active			Activity [13]: 91.4%; Activity [14]: 86.5%
Nc1cc(N2CCN(C(=O)COc3cccc4c3C(=O)N(C3CCC(=O)NC3=O)C4=O)CC2)ccc1[N+](=O)[O-] (configuration not stated)				Activity [13]: 15.8%; Activity [14]: 32.2%
Nc1cc(N2CCN(CCNCCC3CCN(c4ccc5c(c4)C(=O)N(C4CCC(=O)NC4=O)C5=O)CC3)CC2)ccc1[N+](=O)[O-] (configuration not stated)		73.6	49.3	
Nc1cc(N2CCN(CCNCC3CCCN(c4ccc5c(c4)C(=O)N(C4CCC(=O)NC4=O)C5=O)C3)CC2)ccc1[N+](=O)[O-] (configuration not stated)		51.6	74.2	
Nc1cc(N2CCN(CC3C4CN(c5cc6c(cc5F)C(=O)N(C5CCC(=O)NC5=O)C6=O)CC34)CC2)ccc1[N+](=O)[O-] (configuration not stated)	Active	95.6	89.4	
Nc1cc(N2CCN(CCNCC3CCN(c4cc5c(cc4F)C(=O)N(C4CCC(=O)NC4=O)C5=O)CC3)CC2)ccc1[N+](=O)[O-] (configuration not stated)	Active	84.7	60.5	
Nc1cc(N2CCN(CC(=O)Nc3cccc4c3C(=O)N(C3CCC(=O)NC3=O)C4=O)CC2)ccc1[N+](=O)[O-] (configuration not stated)				Activity [13]: 17.4%; Activity [14]: < 5%
Nc1cc(N2CCN(CCNCC3CN(c4cc5c(cc4F)C(=O)N(C4CCC(=O)NC4=O)C5=O)C3)CC2)ccc1[N+](=O)[O-] (configuration not stated)		83.5	46.1	
Nc1cc(N2CCN(CCCCCC(=O)Nc3cccc4c3C(=O)N(C3CCC(=O)NC3=O)C4=O)CC2)ccc1[N+](=O)[O-] (configuration not stated)				Activity [13]: 36.8%; Activity [14]: 47.8%
Nc1cc(N2CCN(CCNCC3C4CN(c5ccc6c(c5)C(=O)N(C5CCC(=O)NC5=O)C6=O)CC34)CC2)ccc1[N+](=O)[O-] (configuration not stated)		15.4		
Nc1cccc2c1C(=O)N(C1CCC(=O)NC1=O)C2=O (configuration not stated)				Activity (SK-HEP1 [15]): 10.9%; Activity (SK-HEP1 [16]): 6.5%
Nc1cc(N2CCN(CCNC(=O)COc3cccc4c3C(=O)N(C3CCC(=O)NC3=O)C4=O)CC2)ccc1[N+](=O)[O-] (configuration not stated)				Activity [13]: 72.3%; Activity [14]: 85.7%
Nc1cc(N2CCN(CC3CCN(c4ccc5c(c4)C(=O)N(C4CCC(=O)NC4=O)C5=O)CC3)CC2)ccc1[N+](=O)[O-] (configuration not stated)	Active	93.6	85.9	Activity [11]: inactive; Emax [3]: 90.6%; IC50 (SK-HEP1 [4]): 1750 nM; DC50 [5]: 106 nM; Activity [5]: Dose-dependent-effect; Activity [12]: > 95%; Emax [9]: 94.8%; DC50 [10]: 239 nM
